Source: PubChem BioAssay (NCI)
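Growth conditions: 96-well plates. Treatment: test compound, 48 hours, 5 concentrations. Analysis: linear interpolation between bracketing concentrations; unreached endpoints set to highest concentration. GI50 marks 50% less growth. TGI denotes the concentration required for complete inhibition of growth.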

Assays:
Assay in all cases: NCI anticancer screen, dose series, 48 h
[1] = tested on: RPMI-8226 leukemia
[2] = tested on: SF-295 CNS
[3] = tested on: A498 renal
[4] = tested on: HOP-92 NSCLC
[5] = tested on: MOLT-4 leukemia
[6] = tested on: HCT-15 colon
[7] = tested on: T-47D breast
[8] = tested on: HT29 colon
[9] = tested on: OVCAR-4 ovarian
[10] = tested on: SK-MEL-5 melanoma

Structure (SMILES) | GI50 [1] | TGI [1] | GI50 [2] | TGI [2] | GI50 [3] | TGI [3] | GI50 [4] | TGI [4] | GI50 [5] | TGI [5] | GI50 [6] | TGI [6] | GI50 [7] | TGI [7] | GI50 [8] | TGI [8] | GI50 [9] | TGI [9] | GI50 [10] | TGI [10]
O=C(CN1CCN(CCCOc2c(-c3ccccc3)oc3ccccc3c2=O)CC1)Nc1ccc(Cl)cc1C(=O)c1ccccc1Cl | 2.59 µM | 7.14 µM | 4.79 µM | 18.2 µM | 21.5 µM | 81.8 µM | 1.05 µM | 6.6 µM | 3.98 µM | 66.7 µM | 5.48 µM | 53.8 µM | 6.7 µM | 33.9 µM | 3.09 µM | > 100 µM | 7.48 µM | 54.8 µM | 5.93 µM | 25.2 µM
COc1ccc2c(=O)c3ccoc3n(CC=C(C)C)c2c1 | – | > 100 µM | – | > 100 µM | – | > 100 µM | – | > 63.7 µM | – | > 100 µM | – | > 100 µM | – | > 100 µM | – | > 100 µM | – | > 100 µM | – | > 69.3 µM
CC(C)[C@H](CO)Nc1nc(Nc2ccc(C(=O)NCCNS(=O)(=O)c3cccc4c(N(C)C)cccc34)c(Cl)c2)c2ncn(C(C)C)c2n1 | 2.14 µM | 5.63 µM | 1.75 µM | > 100 µM | 1.83 µM | 6.1 µM | 2 µM | > 100 µM | 3.51 µM | > 100 µM | 4.29 µM | > 100 µM | 2.93 µM | > 82.5 µM | 2.5 µM | > 41.8 µM | 7.71 µM | > 100 µM | 2.07 µM | 5.16 µM
COC(=O)c1c2c(c(C)[n+]([O-])c1C)C(=O)C=C(NCc1ccc(F)c(Cl)c1)C2=O | 0.839 µM | 3.93 µM | 0.231 µM | 1.48 µM | 0.437 µM | 2.05 µM | 1.69 µM | 3.84 µM | 0.404 µM | 2.19 µM | 0.0855 µM | 1.63 µM | 0.0638 µM | 1.35 µM | 0.243 µM | 2.15 µM | 0.151 µM | 0.603 µM | 0.164 µM | 0.311 µM
C=CC(=O)N1CCN(c2nc(=O)n(-c3c(C)ccnc3C(C)C)c3nc(-c4c(O)cccc4F)c(F)cc23)[C@@H](C)C1 | 18.1 µM | > 90.9 µM | 44.4 µM | > 100 µM | 11.8 µM | > 54.1 µM | 29.8 µM | > 58.8 µM | 18.7 µM | 71 µM | 29.5 µM | > 74.3 µM | 40.9 µM | > 100 µM | 35.9 µM | > 100 µM | 35.8 µM | > 100 µM | 27.8 µM | > 59.1 µM
O=C(/C=C/c1cccnc1)NCCCCC1CCCN(C(=O)c2ccccc2)C1 (stereo not given) | < 0.01 µM | > 100 µM | < 0.0474 µM | > 87.1 µM | > 61.1 µM | > 100 µM | > 100 µM | > 100 µM | 23 µM | > 100 µM | < 0.01 µM | > 100 µM | < 0.01 µM | > 100 µM | < 0.01 µM | > 100 µM | > 74 µM | > 100 µM | < 0.0273 µM | > 100 µM
CCCc1cc2c(=O)c(C(=O)OC)c[nH]c2cc1N(CC)CC | 63.2 µM | > 100 µM | 8.16 µM | 24.8 µM | 82.3 µM | > 100 µM | 19.2 µM | 52.7 µM | > 100 µM | > 100 µM | 76.7 µM | > 100 µM | 53 µM | > 100 µM | 72.1 µM | > 100 µM | 22.4 µM | 74.5 µM | 31.9 µM | > 100 µM
